pIC50: −log10 of the molar value. Activity calls are given as the source filed them. The rule behind the calls is not given here.
Assays:
Entamoeba histolytica [1] = experiment: Induction of apoptosis in Entamoeba histolytica […] trophozoites assessed as early apoptotic cells at IC50 concentration after 48 hrs by annexin-V-FITC/propidium iodide staining based flow cytometric analysis (reference value: 0.9%); format: functional, HM-1:IMSS
Entamoeba histolytica [2] = experiment: Induction of ROS generation in Entamoeba histolytica […] trophozoites at IC50 concentration incubated for 1 hr in presence of catalase by DCFDA staining based assay relative to control; format: functional, HM-1:IMSS
Entamoeba histolytica [3] = experiment: Antimicrobial activity against Entamoeba histolytica […] trophozoites infected in Syrian hamster assessed as blood ureic nitrogen level at 0.1 mg/kg, ip at 4 days post infection and measured on day 8 (reference value: […]); format: functional, HM-1:IMSS; settings: time 4 day
Entamoeba histolytica [4] = experiment: Antimicrobial activity against Entamoeba histolytica […] trophozoites infected in Syrian hamster assessed as glucose level at 0.1 mg/kg, ip at 4 days post infection and measured on day 8 (reference value: 126 +/- 18 mg/dl); format: functional, HM-1:IMSS; settings: time 4 day
Entamoeba histolytica [5] = experiment: Antimicrobial activity against Entamoeba histolytica […] trophozoites infected in Syrian hamster assessed as creatinine level at 0.1 mg/kg, ip at 4 days post infection and measured on day 8 (reference value: 0.9 +/- 0.06 mg/dl); format: functional, HM-1:IMSS; settings: time 4 day
Entamoeba histolytica [6] = experiment: Antimicrobial activity against Entamoeba histolytica […] trophozoites infected in Syrian hamster assessed as total bilirubin level at 0.1 mg/kg, ip at 4 days post infection and measured on day 8 (reference value: 0.8 +/- 0.2 mg/dl); format: functional, HM-1:IMSS; settings: time 4 day
Entamoeba histolytica [7] = experiment: Antimicrobial activity against Entamoeba histolytica […] trophozoites infected in Syrian hamster assessed as inhibition of amoebic liver abscess at 0.1 mg/kg, ip at 4 days post infection and measured on day 8 by NMR analysis; format: functional, organism-based; settings: HM-1:IMSS, time 4.0 day
Entamoeba histolytica [8] = experiment: Antimicrobial activity against Entamoeba histolytica […] trophozoites assessed as decrease in granularity at IC50 concentration after 48 hrs by uranyl acetate staining based TEM analysis; format: functional, organism-based; settings: HM-1:IMSS
Entamoeba histolytica [9] = experiment: Antimicrobial activity against Entamoeba histolytica […] trophozoites infected in Syrian hamster assessed as inhibition of amoebic liver abscess by measuring edema at 0.1 mg/kg, ip at 4 days post infection and measured on day 8 by H and E staining based microscopic method; format: functional, organism-based; settings: HM-1:IMSS, time 4.0 day
Entamoeba histolytica [10] = experiment: Induction of apoptosis in Entamoeba histolytica […] trophozoites assessed as necrotic cells at IC50 concentration after 48 hrs by annexin-V-FITC/propidium iodide staining based flow cytometric analysis (reference value: 0.4%); format: functional, HM-1:IMSS
Entamoeba histolytica [11] = experiment: Antimicrobial activity against Entamoeba histolytica […] trophozoites infected in Syrian hamster assessed as ALT level at 0.1 mg/kg, ip at 4 days post infection and measured on day 8 (reference value: 276 +/- 24 U/L); format: functional, HM-1:IMSS; settings: time 4 day
BEAS-2B = experiment: Cytotoxicity against human BEAS-2B cells assessed as reduction in cell viability after 24 hrs by MTT assay; format: cell-based
Entamoeba histolytica [12] = experiment: Antimicrobial activity against Entamoeba histolytica […] trophozoites infected in Syrian hamster assessed as urea level at 0.1 mg/kg, ip at 4 days post infection and measured on day 8 (reference value: 14 +/- 1 mg/dl); format: functional, HM-1:IMSS; settings: time 4 day
Entamoeba histolytica [13] = experiment: Antimicrobial activity against Entamoeba histolytica […] trophozoites infected in Syrian hamster assessed as platelets at 0.1 mg/kg, ip at 4 days post infection and measured on day 8 (reference value: 439 +/- 108 […]); format: functional, HM-1:IMSS; settings: time 4 day
Entamoeba histolytica [14] = experiment: Antimicrobial activity against Entamoeba histolytica […] trophozoites infected in Syrian hamster assessed as triglycerides level at 0.1 mg/kg, ip at 4 days post infection and measured on day 8 (reference value: 395 +/- 41 mg/dl); format: functional, HM-1:IMSS; settings: time 4 day
Entamoeba histolytica [15] = experiment: Antimicrobial activity against Entamoeba histolytica […] trophozoites assessed as abnormal condensation of chromatin at IC50 concentration after 48 hrs by uranyl acetate staining based TEM analysis; format: functional, organism-based; settings: HM-1:IMSS
CHO-K1 = experiment: Cytotoxicity against CHO-K1 cells assessed as reduction in cell viability after 24 hrs by MTT assay; format: cell-based; settings: Cricetulus griseus, CHO-K1, 24 h
Entamoeba histolytica [16] = experiment: Induction of ROS generation in Entamoeba histolytica […] trophozoites at IC50 concentration incubated for 1 hr by DCFDA staining based assay; format: functional, organism-based; settings: HM-1:IMSS
Entamoeba histolytica [17] = experiment: Antimicrobial activity against Entamoeba histolytica […] trophozoites infected in Syrian hamster assessed as inhibition of amoebic liver abscess by abundant monocytes at 0.1 mg/kg, ip at 4 days post infection and measured on day 8 by H and E staining based microscopic method; format: functional, organism-based; settings: HM-1:IMSS, time 4.0 day
Entamoeba histolytica [18] = experiment: Antimicrobial activity against Entamoeba histolytica […] trophozoites assessed as decrease in number of vacuoles at IC50 concentration after 48 hrs by uranyl acetate staining based TEM analysis; format: functional, organism-based; settings: HM-1:IMSS
Entamoeba histolytica [19] = experiment: Antimicrobial activity against Entamoeba histolytica […] trophozoites infected in Syrian hamster assessed as inhibition of amoebic liver abscess by measuring liver weight at 0.1 mg/kg, ip at 4 days post infection and measured on day 8 relative to control; format: functional; settings: HM-1:IMSS, 96 h, time 4 day
Entamoeba histolytica [20] = experiment: Induction of apoptosis in Entamoeba histolytica […] trophozoites assessed as viable cells at IC50 concentration after 48 hrs by annexin-V-FITC/propidium iodide staining based flow cytometric analysis (reference value: 98%); format: functional, HM-1:IMSS
Entamoeba histolytica [21] = experiment: Antimicrobial activity against Entamoeba histolytica […] trophozoites infected in Syrian hamster assessed as ALP level at 0.1 mg/kg, ip at 4 days post infection and measured on day 8 (reference value: 638 +/- 50 U/L); format: functional, HM-1:IMSS; settings: time 4 day
Entamoeba histolytica [22] = experiment: Induction of apoptosis in Entamoeba histolytica […] trophozoites assessed as late apoptotic cells at IC50 concentration after 48 hrs by annexin-V-FITC/propidium iodide staining based flow cytometric analysis (reference value: 0.7%); format: functional, HM-1:IMSS
Entamoeba histolytica [23] = experiment: Antimicrobial activity against Entamoeba histolytica […] trophozoites assessed as decrease in size of cells at IC50 concentration after 48 hrs by uranyl acetate staining based TEM analysis; format: functional, organism-based; settings: HM-1:IMSS
Entamoeba histolytica [24] = experiment: Binding affinity to Entamoeba histolytica […] trophozoites actin assessed as induction of polarization of polymerized actin at IC50 concentration incubated for 1 hrs by […] staining based confocal microscopic analysis
Entamoeba histolytica [25] = experiment: Antimicrobial activity against Entamoeba histolytica […] trophozoites infected in Syrian hamster assessed as inhibition of amoebic liver abscess by measuring vascular congestion at 0.1 mg/kg, ip at 4 days post infection and measured on day 8 by H and E staining based microscopic method; format: functional, organism-based; settings: HM-1:IMSS, time 4.0 day
Entamoeba histolytica [26] = experiment: Antimicrobial activity against Entamoeba histolytica HM1:MMS assessed as reduction in amoeba growth; format: functional, organism-based; settings: HM-1:IMSS
Entamoeba histolytica [27] = experiment: Induction of DNA fragmentation in Entamoeba histolytica […] trophozoites at IC50 concentration after 1 hr by TUNEL assay relative to control; format: functional, HM-1:IMSS

C[C@]12C[C@H](c3ccoc3)OC(=O)[C@H]1CC[C@@]13COC(=O)C1=CC=C[C@H]32
Activity (Entamoeba histolytica [1]): 19.5%
Activity (Entamoeba histolytica [2]): 52.68%
Activity (Entamoeba histolytica [3]): 17 mg/dL
Activity (Entamoeba histolytica [4]): 130 mg/dL
Activity (Entamoeba histolytica [5]): 0.6 mg/dL
Activity (Entamoeba histolytica [6]): 0.4 mg/dL
inhibition (Entamoeba histolytica [7]): Active
Activity (Entamoeba histolytica [8]): Active
inhibition (Entamoeba histolytica [9]): Active
Activity (Entamoeba histolytica [10]): 9.4%
Activity (Entamoeba histolytica [11]): 81 U/L
pIC50 (BEAS-2B): 3.22
Activity (Entamoeba histolytica [12]): 45 mg/dL
Activity (Entamoeba histolytica [13]): 320 thousand/mm3
Activity (Entamoeba histolytica [14]): 127 mg/dL
Activity (Entamoeba histolytica [15]): Active
pIC50 (CHO-K1): 3.06
Activity (Entamoeba histolytica [16]): Active
inhibition (Entamoeba histolytica [17]): Active
Activity (Entamoeba histolytica [18]): Active
inhibition in vivo at 0.1 mg/kg (Entamoeba histolytica [19]): 93.3%
Activity (Entamoeba histolytica [20]): 12.6%
Activity (Entamoeba histolytica [21]): 324 U/L
Activity (Entamoeba histolytica [22]): 58.6%
Activity (Entamoeba histolytica [23]): Active
Activity (Entamoeba histolytica [24]): Active
inhibition (Entamoeba histolytica [25]): Active
pIC50 (Entamoeba histolytica [26]): 4.56
Activity (Entamoeba histolytica [27]): 78%

Reference: ChEMBL document CHEMBL4673317, “Linearolactone and Kaempferol Disrupt the Actin Cytoskeleton in Entamoeba histolytica: Inhibition of Amoebic Liver Abscess Development” (J Nat Prod, 2020)
